From patent publication US20210379077A1, “TOPOISOMERASE II CATALYTIC INHIBITOR COMPOUND THERAPEUTICS FOR CANCER TREATMENT, METHODS AND USES” (The University of British Columbia, priority 2018, published 2021)
“Also recorded” adds a separate entry of the source.

What was measured:
human TOP2a = target: T1, human TOP2a (Homo sapiens, UniProt P11388); assay: K-DNA decatenation assay; assay type: biochemical; conditions: 0-50 μM, 37° C., 1 hour
T1 construct: purchased TopoGENE (TopoGEN) TG1001 (assay kit)
Description: (§1) DNA samples were separated by electrophoresis on 0.8% agarose gels and visualized by ethium bromide staining. The positions of K-DNA and decatenated (D) DNA products are marked by arrows. Experiments were repeated five times and the densitometry of the D bands were used to establish an inhibition curve to calculate IC50. (b) Supercoiled pHOT™ plasmid was incubated with human TOP2a in the presence of 50 μM Etopside, 50 uM ICRF193 or 0-50 μM of compound #60 (Top60) compound at 37° C. for 1 hour. DNA products were separated by electrophoresis on 1% agarose gels and visualized by ethium bromide staining. The positions of supercoiled (SC), nicked (N), and relaxed (R) DNA bands are marked by arrows. Experiments were repeated five times and the densitometiy of the SC bands were used to establish an inhibition curve to calculate IC50. (c) Supercoiled pHOT™ plasmid was incubated with Topoisomerase I prior to addition of either mAMSA or compound #60 (Top60) at concentrations of 0, 5, 10, 25 and 50 μM at 37° C. for 30 minutes. Reactions were stopped by 1% SDS at 37° C. for 15 minutes. DNA products were separated by electrophoresis on a 1% agarose gels and visualized by ethium bromide staining. […]

Hela cells [1] = assay: Confocal microscopy of nuclei size; assay type: cell-based; conditions: 20 μM, 48 hours, DAPI staining
Description: BrdU incorporation rates were determined by Millipore™ BrdU incorporation kit (CAT #2750). (b-c) Hela cells were treated with vehicle or 20 μM of Top60 for 48 hours. Cells were then stained with APC-BrdU and 7-AAD for 4 hours, and subjected to FACS assays to determine cell populations at Sub G0/G1, G0/G1, S, and G2/M phases. Results were collected from three independent experiments, (d-e) Hela cells were treated with either vehicle or 20 μM T60 for 48 hours. Cells were fixed and co-stained with DAPI and phalloidin, and examined by confocal microscopy. Fifty cells were chosen from five high power fields to analyze nuclei sizes by the Image J software. Representative bright field microscopic images were also shown. Scale bar=50 μm.
Confocal microscopy—Cells were fixed with 4% paraformaldehyde, treated in 0.25% Triton X-100 for 15 mins, incubated with F-actin conjugated to Phalloidin-iFluor 488™ (Abeam™; Cambridge, UK), and mounted with DAPI staining mount (Vector Labs™; Burlingame, Calif., USA). Cells were then imaged by confocal microscopy at 63× magnification (Zeiss LSM 780™; Carl Zeiss AG™; Oberkochen, Germany).

Hela cells [2] = assay: LDH cytotoxicity assay; assay type: cell-based; conditions: 0-20 μM, 48 hours, listed as Top60
Description: Cytotoxicity was evaluated by measuring LDH levels from cell culture media; (b) K562 cells were treated with either vehicle or 10-20 μM of Top60, Etoposide and ICRF187 for 4 hours. Whole cell lyses were collected to measure γH2AX levels with vinculin as the loading control; (c) K562 cells were treated with 0, 1, 5, 10, 15 and 20 μM of Top60, 20 μM Etoposide or 20 uM ICRF187 for 48 hours. Cell proliferation rates were determined by MTS assays; and (d) K562 cells were treated with 20 μM of Top60, Etoposide or ICRF187 for 0, 24, 48 and 72 hours. Cell proliferation rates were measured by MTS assays. All results were collected from three independent experiments.
Cytotoxicity assay—Cytotoxicity assays were performed using the commercial kit from Pierce (CAT #8078). Briefly, culture media was collected and used to measure lactate dehydrogenase (LDH) levels by a colorimetric method following manufacture's protocol.

[3] = tested on: Etoposide-resistant K562 cell line; assay: MTS cell proliferation assay in Etoposide-resistant cells; assay type: cell-based; conditions: 0-20 μM, 48 hours; cells with downregulated Topo II
Description: (§2) Whole cell lyses were collected and used to measure protein levels of TOP2α, TOP2β with β-Actin as a loading control; (b) K562 cells were treated with 0, 1, and 10 μM of Top60 for 24 hours. Protein lyses were collected from soluble nuclear extract, chromatin fraction or whole cell lysate. TOP2α and TOP2β protein levels were determined by immunoblotting with Lamin A/C, Histone H3 and β-Actin as loading controls; and (c) Etoposide-resistant K562 cell line was established by treating cells with 0.5 μM of Etoposide for 6 months. TOP2α, TOP2β, and β-actin protein levels were determined by immunoblotting. Etoposide-resistant K562 cells were treated with 0, 1, 10, 15 and 20 μM of Top60, Etoposide or ICRF187 for 48 hours. Cell proliferation rates were determined by MTS assays.
In order to asses binding of the lead compound to Topo II, a thermal shift assay was performed. […] It was observed that Topo IIα was stabilized up to 43° C. in the presence of the lead compound (FIG. 4A). Furthermore, cellular fractionation was performed to assess localized changes in Topo II in response to compound treatment. As Topo IIα is important for decatenating DNA during cellular replication, it is expected to be chromatin bound. […] To further verily that Topo II is the only observable target of Top60, Etoposide resistant cell lines were bred. […]

Topo IIα [4] = target: T2, Topo IIα (Homo sapiens, UniProt P11388); assay: DNA relaxation assay with supercoiled pHOT plasmid; assay type: biochemical; set-up: purchased TopoGENE (TopoGEN) TG2000H; conditions: 0-50 μM, 37° C., 1 hour
Description: as §1

Topo IIα [5] = target: T2, Topo IIα; assay: Chromatin fraction assay; assay type: cell-based; set-up: endogenous in cells; host or cells: K562; conditions: K562 cells, 0, 1 and 10 μM, 24 hours
Description: as §2
Thermal shift and chromatin fraction assays—In the thermal shift assays, cells were treated with vehicle or compound #60 (Top60) for 1 hour, split into equal aliquots to be heated at 37 to 46 degrees in a PCR machine. Protein lyses were collected to perform immunoblotting assays with Topo II antibodies. In the chromatin fraction assays, cells were treated with vehicle or compound #60 (Top60). Both soluble and chromatin associated proteins were fractioned following the protocol described by Wysocka J et al.^18. Protein lyses were collected to perform immunoblotting assays with Topo II antibodies. […]

T2 sequence (P11388 whole entry): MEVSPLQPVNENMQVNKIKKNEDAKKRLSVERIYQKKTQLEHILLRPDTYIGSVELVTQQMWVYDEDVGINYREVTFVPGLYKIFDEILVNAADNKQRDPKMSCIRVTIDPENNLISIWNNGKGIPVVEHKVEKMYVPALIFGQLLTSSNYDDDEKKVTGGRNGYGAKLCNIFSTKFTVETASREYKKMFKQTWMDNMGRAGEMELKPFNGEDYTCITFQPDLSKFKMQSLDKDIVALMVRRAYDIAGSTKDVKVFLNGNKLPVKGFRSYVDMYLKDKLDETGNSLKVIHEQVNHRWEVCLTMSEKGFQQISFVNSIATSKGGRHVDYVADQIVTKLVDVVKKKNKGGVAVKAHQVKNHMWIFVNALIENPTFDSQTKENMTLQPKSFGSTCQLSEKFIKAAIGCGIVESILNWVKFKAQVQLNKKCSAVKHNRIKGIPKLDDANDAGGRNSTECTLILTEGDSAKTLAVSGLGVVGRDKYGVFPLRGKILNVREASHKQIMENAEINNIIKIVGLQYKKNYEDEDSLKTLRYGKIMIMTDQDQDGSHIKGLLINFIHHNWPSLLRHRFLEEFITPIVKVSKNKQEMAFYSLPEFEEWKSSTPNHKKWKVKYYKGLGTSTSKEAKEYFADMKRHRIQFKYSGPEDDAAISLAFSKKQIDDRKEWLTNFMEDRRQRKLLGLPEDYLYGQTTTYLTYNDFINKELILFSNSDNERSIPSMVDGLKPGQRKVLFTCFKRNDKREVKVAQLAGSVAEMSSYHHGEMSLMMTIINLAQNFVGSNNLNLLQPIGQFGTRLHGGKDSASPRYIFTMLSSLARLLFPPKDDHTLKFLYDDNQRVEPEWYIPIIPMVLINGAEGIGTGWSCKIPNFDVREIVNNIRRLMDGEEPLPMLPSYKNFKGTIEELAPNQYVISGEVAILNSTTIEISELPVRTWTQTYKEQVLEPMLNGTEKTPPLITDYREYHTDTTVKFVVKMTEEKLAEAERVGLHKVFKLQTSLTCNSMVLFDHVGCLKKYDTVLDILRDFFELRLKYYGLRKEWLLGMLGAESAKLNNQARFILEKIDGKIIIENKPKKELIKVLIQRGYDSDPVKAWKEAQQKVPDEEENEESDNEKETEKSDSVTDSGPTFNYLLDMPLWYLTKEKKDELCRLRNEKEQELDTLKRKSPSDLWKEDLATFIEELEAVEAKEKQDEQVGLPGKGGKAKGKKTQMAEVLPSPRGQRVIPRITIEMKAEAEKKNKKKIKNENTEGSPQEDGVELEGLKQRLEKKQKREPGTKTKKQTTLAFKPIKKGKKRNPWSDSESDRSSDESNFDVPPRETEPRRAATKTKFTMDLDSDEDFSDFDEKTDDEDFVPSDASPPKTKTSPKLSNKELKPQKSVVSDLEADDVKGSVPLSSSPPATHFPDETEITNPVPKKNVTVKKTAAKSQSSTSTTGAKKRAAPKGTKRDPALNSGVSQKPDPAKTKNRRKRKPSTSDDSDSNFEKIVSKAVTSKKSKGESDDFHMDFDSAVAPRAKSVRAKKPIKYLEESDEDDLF
T1 sequence (P11388 whole entry): as above

O=C(Nc1ccc(Nc2ccccc2)cc1)c1ccc[nH]c1=S [Compound 60]
IC50 in the decatenation assay (human TOP2a): nanomolar
nuclei size (Hela cells [1]): enlarged nuclei
cytotoxicity (LDH levels in culture media) (Hela cells [2]): Low cytotoxic affect; also recorded: low cytotoxicity
inhibitory effects on Etoposide resistant cells [3]: dramatically reduced
IC50 in the relaxation assay (Topo IIα [4]): nanomolar
chromatin binding of Topo IIα (Topo IIα [5]): became unbound from chromatin
